According to patent US20250275995A1, “NICOTINAMIDE RIBOSIDE DOSAGE REGIMEN FOR TREATING PARKINSON'S DISEASE” (VESTLANDETS INNOVASJONSSELSKAP AS (VIS), priority 2022, published 2025):

Experiments:
blood NAD^+ levels = test: NAD-brain pharmacokinetic study: whole blood NAD+ response; assay type: in vivo, human
Protocol: The NAD-brain study performs a parallel assessment of NAD replenishment therapy pharmacokinetics in the blood and brain of healthy human subjects and subjects with Parkinson's disease (PD). A total of 10 healthy individuals (5 men and 5 women) and 10 individuals with PD (5 men and 5 women) undergo repeated blood sampling and 31P-MRS brain scans during two 20-day periods, each of which starts with 8 days of daily intake of NR 600 mg×2, or NMN 600 mg×2. The two 20-day period is 14 days apart to allow for washout of the previous compound. Blood is analyzed for NR and NAD-metabolites using HPLC-MS. By this approach, we measured the simultaneous change in NAD-metabolism overtime in blood and brain and establish blood and brain pharmacokinetics for NAD replenishment therapy in humans.
NR (Niagen®, Chromadex) at a dose of 600 mg×2 daily). NMN (Restorin®, from Seragon Pharmaceutics, or MIB-626 from Metro International Biotech) at a dose of 600 mg×2 daily.
• At screening, participants are assessed for eligibility, inclusion/exclusion criteria, medical history and concomitant medication is recorded, and informed consent signed. • The NAD-brain study performs a parallel assessment of NAD replenishment therapy pharmacokinetics in the blood and brain of healthy human subjects and subjects with Parkinson's disease (PD). Healthy individuals and individuals with PD undergo repeated blood sampling and 31P-MRS brain scans during two 20-day periods, each of which starts with 8 days of daily intake of NR 600 mg×2, or NMN 600 mg×2 (Table 10). • For each 20-day period the testing (i.e., scanning and blood draw) frequency is shown in Table 10, below. The two 20-day periods are 14 days apart to allow for washout of the previous compound.
Blood is analyzed for NR and NAD-metabolites using HPLC-MS metabolomics. Snap-frozen whole blood is used for the analysis of NAD^+. Blood is drawn from the participant in EDTA tube (VACUETTE® TUBE 2 ml K2E K2EDTA). The EDTA tube is gently inverted at least 10 times without shaking; 8×200 μl of blood from the EDTA tube is aliquoted into 8×0.5 ml micro tubes; these are closed, and all the micro tubes are immerse simultaneously in liquid nitrogen within 2 min from when blood has started flowing into the EDTA tube; then transferred frozen to −80° C. freezer for storage; stored at −80C in freezer-compatible cardboard or plastic storage boxes; and shipped on dry ice.
This is a pharmacokinetic (PK) study where 6 healthy individuals (3 male and 3 female): • 1) Received NR 1200 mg daily (600 mg×2) for 8 days, followed by an additional 11 days follow up, while undergoing serial blood and brain NAD-measurement. • 2) Received NMN 1200 mg daily (600 mg×2) for 8 days, followed by an additional 11 days follow up, while undergoing serial blood and brain NAD-measurement.
The individuals were mixed, so that in stage-1 three individuals received NR and three individuals received NMN, then in stage-2 they switched (Cross-over design). There were almost three weeks (20 days) of washout between the last dose of the first compound, and before the first dose of the second compounds.

brain NAD levels = test: NAD-brain pharmacokinetic study: brain NAD by 31P-MRS; assay type: in vivo, human; settings: 11 days after last dose, 1200 mg daily for 8 days
Protocol: • At screening, participants are assessed for eligibility, inclusion/exclusion criteria, medical history and concomitant medication is recorded, and informed consent signed. • The NAD-brain study performs a parallel assessment of NAD replenishment therapy pharmacokinetics in the blood and brain of healthy human subjects and subjects with Parkinson's disease (PD). Healthy individuals and individuals with PD undergo repeated blood sampling and 31P-MRS brain scans during two 20-day periods, each of which starts with 8 days of daily intake of NR 600 mg×2, or NMN 600 mg×2 (Table 10). • For each 20-day period the testing (i.e., scanning and blood draw) frequency is shown in Table 10, below. The two 20-day periods are 14 days apart to allow for washout of the previous compound. This is a pharmacokinetic (PK) study where 6 healthy individuals (3 male and 3 female): • 1) Received NR 1200 mg daily (600 mg×2) for 8 days, followed by an additional 11 days follow up, while undergoing serial blood and brain NAD-measurement. • 2) Received NMN 1200 mg daily (600 mg×2) for 8 days, followed by an additional 11 days follow up, while undergoing serial blood and brain NAD-measurement. The individuals were mixed, so that in stage-1 three individuals received NR and three individuals received NMN, then in stage-2 they switched (Cross-over design). There were almost three weeks (20 days) of washout between the last dose of the first compound, and before the first dose of the second compounds. In the brain, total NAD (NAD^++NADH) levels were measured by 31P-MRS as previously described^19. […] 19 Brakedal, B. et al. The […] study: A randomized phase I trial of nicotinamide riboside supplementation in Parkinson's disease. Cell Metab 34, 396-407.e6 (2022).

adult humans = settings: dosages above 50-100 mg; cited from earlier work

NC(=O)c1ccc[n+]([C@@H]2O[C@H](COP(=O)([O-])O)[C@@H](O)[C@H]2O)c1 [NMN, Nicotinamide Mononucleotide]
blood NAD^+ levels (blood NAD^+ levels; 1200 mg daily (600 mg×2) for 8 days, 6 healthy individuals): increased in all individuals | day of maximal NAD levels in the blood (blood NAD^+ levels; 1200 mg daily for 8 days, last dose morning of day 8): 8 days | plateau of blood NAD^+ levels (blood NAD^+ levels; after 8 days of precursor intake, 1200 mg daily): did not plateau after 8 days | NAD levels at day 19 (brain NAD levels): returned to baseline by day 19

O=C(O)c1cccnc1 [nicotinic acid]
flushing with NAD precursor supplementation (adult humans): painful flushing
